Test results reported in ChEMBL document CHEMBL4354824, “4-Aryl-1-oxa-4,9-diazaspiro[5.5]undecane Derivatives as Dual μ-Opioid Receptor Agonists and σ1 Receptor Antagonists for the Treatment of Pain” (J Med Chem, 2020).

Experiments:
[1] = target: Voltage-gated inwardly rectifying potassium channel KCNH2 (Homo sapiens, UniProt Q12809)
Description: Inhibition of human ERG expressed in CHOK1 cells assessed as reduction in channel current at -80 mV holding potential by whole cell patch clamp assay

[2] = target: T1, Alpha-1A adrenergic receptor (Homo sapiens) (UniProt P35348); assay: Displacement of [3H]-prazosin from human alpha1A adrenoreceptor expressed in enriched membranes at 1 uM incubated for 90 mins by liquid scintillation counting method relative to control; assay type: cell membranes
T1 sequence (whole entry): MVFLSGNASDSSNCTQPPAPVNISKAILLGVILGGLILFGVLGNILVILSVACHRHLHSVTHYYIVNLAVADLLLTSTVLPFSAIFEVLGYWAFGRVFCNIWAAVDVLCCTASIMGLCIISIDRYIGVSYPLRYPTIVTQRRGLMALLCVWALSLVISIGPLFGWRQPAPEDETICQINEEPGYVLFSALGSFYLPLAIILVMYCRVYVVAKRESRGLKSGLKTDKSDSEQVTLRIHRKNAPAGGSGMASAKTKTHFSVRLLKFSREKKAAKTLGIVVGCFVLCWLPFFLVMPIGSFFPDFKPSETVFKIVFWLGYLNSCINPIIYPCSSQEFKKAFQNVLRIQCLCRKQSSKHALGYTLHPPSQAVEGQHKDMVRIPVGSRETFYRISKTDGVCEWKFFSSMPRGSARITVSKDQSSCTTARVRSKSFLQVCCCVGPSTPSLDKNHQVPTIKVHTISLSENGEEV

Mu-type opioid receptor [3] = target: T2, Mu-type opioid receptor (Homo sapiens, UniProt P35372); assay: Agonist activity at human MOR expressed in CHOK1 cells assessed as […] of cAMP accumulation incubated for 45 mins by HTRF assay relative to DAMGO; assay type: functional, cell-based
T2 sequence (P35372 whole entry): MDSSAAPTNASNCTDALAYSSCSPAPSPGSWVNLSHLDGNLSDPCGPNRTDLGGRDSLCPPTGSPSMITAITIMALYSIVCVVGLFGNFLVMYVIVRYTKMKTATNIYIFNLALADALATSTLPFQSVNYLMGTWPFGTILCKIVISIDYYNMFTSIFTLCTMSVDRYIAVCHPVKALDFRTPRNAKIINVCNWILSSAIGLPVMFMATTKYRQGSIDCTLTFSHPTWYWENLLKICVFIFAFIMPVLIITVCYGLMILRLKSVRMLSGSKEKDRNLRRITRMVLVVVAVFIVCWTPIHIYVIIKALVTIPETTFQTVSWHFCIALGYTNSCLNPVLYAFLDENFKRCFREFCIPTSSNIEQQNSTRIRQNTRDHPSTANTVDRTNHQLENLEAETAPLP

[4] = target: Sigma non-opioid intracellular receptor 1 (Homo sapiens, UniProt Q99720); assay: Displacement of [3H]-(+)-pentazocine from human sigma-1 receptor expressed in HEK293 membranes incubated for 120 mins by liquid scintillation counting method
Chain of Sigma non-opioid intracellular receptor 1 (Q99720 whole entry): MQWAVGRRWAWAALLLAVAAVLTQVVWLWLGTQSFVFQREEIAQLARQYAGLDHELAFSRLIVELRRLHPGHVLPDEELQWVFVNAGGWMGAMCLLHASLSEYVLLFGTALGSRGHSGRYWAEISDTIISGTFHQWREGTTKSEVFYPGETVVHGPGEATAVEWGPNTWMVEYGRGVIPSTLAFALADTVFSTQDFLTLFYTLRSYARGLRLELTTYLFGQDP

Mu-type opioid receptor [5] = target: T2, Mu-type opioid receptor; assay: Agonist activity at human MOR expressed in CHOK1 cells assessed as […] of cAMP accumulation incubated for 45 mins by HTRF assay; assay type: functional, cell-based
Mu-type opioid receptor [6] = target: T2, Mu-type opioid receptor; assay: biochemical
Description: Displacement of [3H]-DAMGO from human MOR expressed in CHOK1 cell membranes incubated for 60 mins by liquid scintillation counting method

Chain of Voltage-gated inwardly rectifying potassium channel KCNH2 (Q12809 whole entry): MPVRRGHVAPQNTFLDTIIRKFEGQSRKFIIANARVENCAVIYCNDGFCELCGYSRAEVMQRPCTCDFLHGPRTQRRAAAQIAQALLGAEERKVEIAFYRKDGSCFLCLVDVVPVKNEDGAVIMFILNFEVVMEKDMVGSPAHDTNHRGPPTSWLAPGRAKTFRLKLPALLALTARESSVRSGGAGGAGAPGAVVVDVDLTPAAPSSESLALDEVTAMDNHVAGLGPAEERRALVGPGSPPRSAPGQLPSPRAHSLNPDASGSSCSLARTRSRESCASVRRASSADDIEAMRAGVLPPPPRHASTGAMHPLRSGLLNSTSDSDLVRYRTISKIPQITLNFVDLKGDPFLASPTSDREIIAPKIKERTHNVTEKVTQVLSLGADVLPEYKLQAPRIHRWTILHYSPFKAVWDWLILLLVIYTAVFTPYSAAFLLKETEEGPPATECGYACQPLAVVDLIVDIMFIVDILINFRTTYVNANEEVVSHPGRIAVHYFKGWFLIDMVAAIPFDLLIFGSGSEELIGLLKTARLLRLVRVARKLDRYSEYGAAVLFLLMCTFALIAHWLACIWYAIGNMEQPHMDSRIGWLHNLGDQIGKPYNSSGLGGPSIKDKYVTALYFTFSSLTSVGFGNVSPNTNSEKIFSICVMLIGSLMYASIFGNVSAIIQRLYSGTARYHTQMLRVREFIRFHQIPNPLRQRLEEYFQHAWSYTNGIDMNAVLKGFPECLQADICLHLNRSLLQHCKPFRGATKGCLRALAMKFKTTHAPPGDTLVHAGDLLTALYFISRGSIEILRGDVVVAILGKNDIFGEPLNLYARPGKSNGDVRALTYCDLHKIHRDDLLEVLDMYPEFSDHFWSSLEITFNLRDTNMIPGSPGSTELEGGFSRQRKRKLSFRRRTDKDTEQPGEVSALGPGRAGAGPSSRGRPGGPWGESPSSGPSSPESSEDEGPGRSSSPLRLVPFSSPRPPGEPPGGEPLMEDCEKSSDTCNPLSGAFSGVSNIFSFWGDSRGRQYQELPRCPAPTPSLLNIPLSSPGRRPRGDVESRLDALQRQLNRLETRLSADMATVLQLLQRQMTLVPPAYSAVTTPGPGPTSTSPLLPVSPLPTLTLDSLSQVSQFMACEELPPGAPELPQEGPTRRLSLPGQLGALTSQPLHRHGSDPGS

Row | Structure (SMILES) | IC50 [1] [nM] | inhibition [2] [%] | Emax (Mu-type opioid receptor [3]) [%] | Ki [4] [nM] | EC50 (Mu-type opioid receptor [5]) [nM] | Ki (Mu-type opioid receptor [6]) [nM]
1 | O=C1N(c2ccccc2)CC2(CCN(CCc3ccccc3)CC2)OC12CC2 | 1200 | 87 | 93 | 9 | 11 | 15
2 | CC1OC2(CCN(CCc3ccccc3)CC2)CN(c2cnccn2)C1=O (stereo not drawn) | 100 | 64 | 55 | 13 | 527 | 304
3 | CC1OC2(CCN(CCc3ccncc3)CC2)CN(c2ccccc2)C1=O (stereo not drawn) |  | 30 | 81 | 112 | 1420 | 516
4 | CC1OC2(CCN(CCc3ccccc3)CC2)CN(c2cncc(C(F)(F)F)c2)C1=O (stereo not drawn) | 500 | 87 | 92 | 14 | 721 | 261
5 | COc1ccccc1N1CC2(CCN(CCc3ccccc3)CC2)OC(C)C1=O (stereo not drawn) |  | 78 | 81 | 38 | 144 | 57
6 | CC1OC2(CCN(CCc3ccccc3)CC2)CN(c2ccccc2Cl)C1=O (stereo not drawn) | 1000 | 75 | 96 | 8 | 1 | 3
7 | CC1OC2(CCN(CCc3ccccc3)CC2)CN(c2ncccc2C(F)(F)F)C1=O (stereo not drawn) | 8200 | 60 | 100 | 54 | 343 | 262
8 | COc1cccc(N2CC3(CCN(CCc4ccccc4)CC3)OC(C)C2=O)c1 (stereo not drawn) | 1000 | 82 | 88 | 15 | 304 | 126
9 | CC(=O)Nc1ccccc1CCN1CCC2(CC1)CN(c1ccccc1)C(=O)C(C)O2 (stereo not drawn) |  | 68 | 95 | 656 | 342 | 190
10 | CC1OC2(CCN(CCc3ccccc3F)CC2)CN(c2ccccc2)C1=O (stereo not drawn) |  | 81 | 95 |  |  | 
11 | CCC1OC2(CCN(CCc3ccccc3)CC2)CN(c2ccccc2)C1=O (stereo not drawn) | 400 | 75 | 99 | 6 | 1 | 3
12 | CC1OC2(CCN(CCc3ccccc3)CC2)CN(c2ncccc2F)C1=O (stereo not drawn) | 1200 | 77 | 90 | 39 | 199 | 93
13 | CC1OC2(CCN(CCc3ccccc3)CC2)CN(c2ccccn2)C1=O (stereo not drawn) |  | 63 | 50 | 13 | 1990 | 930
14 | O=C1C(COCc2ccccc2)OC2(CCN(CCc3ccccc3)CC2)CN1c1ccccc1 (stereo not drawn) | 100 | 94 | 96 | 40 | 107 | 40
15 | CC1OC2(CCN(CCc3ccccn3)CC2)CN(c2ccccc2)C1=O (stereo not drawn) | 2000 | 49 | 85 | 53 | 229 | 90
16 | CC1(C)OC2(CCN(CCc3ccccc3)CC2)CN(c2ccccc2)C1=O | 100 | 92 | 98 | 13 | 4 | 3
17 | C[C@H]1OC2(CCN(CCc3ccccc3F)CC2)CN(c2ncccc2C(F)(F)F)C1=O | 6600 | 50 | 98 | 103 | 65 | 34

Row | Structure (SMILES) | IC50 [1] [nM] | inhibition [2] [%] | Emax (Mu-type opioid receptor [3]) [%] | Ki [4] [nM] | EC50 (Mu-type opioid receptor [5]) [nM] | Ki (Mu-type opioid receptor [6]) [nM]
18 | COCC1OC2(CCN(CCc3ccccc3)CC2)CN(c2ccccc2)C1=O (stereo not drawn) | 1900 | 63 | 90 | 32 | 32 | 13
19 | O=C1C(CO)OC2(CCN(CCc3ccccc3)CC2)CN1c1ccccc1 (stereo not drawn) | 1100 | 55 | 88 | 209 | 125 | 46
20 | CC1OC2(CCN(CCc3ccccc3)CC2)CN(c2ccccc2)C1=O (racemic) |  |  |  | 6 |  | 
21 | CC1OC2(CCN(CCc3ccccn3)CC2)CN(c2cnccc2C(F)(F)F)C1=O (stereo not drawn) |  | 47 | 93 | 622 | 767 | 127
22 | O=C1COC2(CCN(Cc3ccccc3)CC2)CN1c1ccccc1 |  |  | 74 | 26 | 3040 | 534
23 | COC(=O)CC1OC2(CCN(CCc3ccccc3)CC2)CN(c2ccccc2)C1=O (stereo not drawn) | 200 | 72 | 85 | 54 | 181 | 92
24 | CC1OC2(CCN(CCc3ccccc3)CC2)CN(c2cccnc2C(F)(F)F)C1=O (stereo not drawn) | 3800 | 55 | 87 | 48 | 186 | 123
25 | C[C@H]1OC2(CCN(CCc3ccccc3F)CC2)CN(c2cnccc2C(F)(F)F)C1=O | 6300 | 54 | 100 | 61 | 26 | 11
26 | CC1OC2(CCN(CCc3ccc(F)cc3)CC2)CN(c2ccccc2)C1=O (stereo not drawn) | 100 | 80 | 95 | 11 | 25 | 19
27 | C[C@H]1OC2(CCN(CCc3ccccc3)CC2)CN(c2ccccc2)C1=O |  | 75 | 95 | 21 |  | 
28 | CC1OC2(CCN(CCc3cccc(C#N)c3)CC2)CN(c2ccccc2)C1=O (stereo not drawn) | 600 | 80 | 88 | 28 | 61 | 49
29 | CC(C)C1OC2(CCN(CCc3ccccc3)CC2)CN(c2ccccc2)C1=O (stereo not drawn) | 1200 | 65 | 96 | 10 | 0.2 | 1
30 | CC1OC2(CCN(CCc3ccccc3)CC2)CN(c2cccnc2)C1=O (stereo not drawn) |  | 69 | 54 | 68 | 627 | 304
31 | CC1OC2(CCN(CCc3cccnc3)CC2)CN(c2ccccc2)C1=O (stereo not drawn) |  | 67 | 85 | 91 | 853 | 117
32 | C[C@@H]1OC2(CCN(CCc3ccccc3)CC2)CN(c2ccccc2)C1=O |  | 68 | 83 | 14 |  | 
33 | CC1OC2(CCN(CCc3ccccc3)CC2)CN(c2cccc(C(F)(F)F)n2)C1=O (stereo not drawn) |  | 95 | 91 | 8 | 219 | 90
